# Measured values published in the NIST ThermoML archive (doi:10.1016/j.jct.2019.03.036).
# Numbers after ± are expanded uncertainties.
# Settings: Liquid, Ebulliometric method (Recirculating still)
smiles,measurement,setting,value
C[S+](C)[O-] [dimethyl sulfoxide],vapor or sublimation pressure,463.27 K,101.3 ± 3.6 kPa
CCOC(C)=O [ethyl acetate],vapor or sublimation pressure,350.29 K,101.3 ± 3.6 kPa
CCCOC(C)=O [propyl ethanoate],vapor or sublimation pressure,374.62 K,101.3 ± 3.6 kPa
